Measurements published in patent US6737383B1, “Herbicidal oxadiazolidines” (priority 1999, dated 2004).

What was measured:
[1] = system: surinam grass; test: Test B pre/postemergence surinam grass; format: in vivo, Brachiaria decumbens; details: Preemergence
Outline: (§1)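 Test chemicals in a non-phytotoxic solvent mixture with surfactant were sprayed preemergence onto planted seeds and postemergence onto plants 2 to 18 cm tall (1- to 4-leaf stage). After twelve to sixteen days in a greenhouse, injury was visually rated against untreated controls from 0 (no effect) to 10 (complete control).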

[2] = system: soybean; test: Test B pre/postemergence soybean; format: in vivo, Glycine max; details: Preemergence
Outline: as §1

[3] = system: crabgrass; test: Test B pre/postemergence crabgrass; format: in vivo, Digitaria sanguinalis; details: Preemergence
Outline: as §1

[4] = system: wild oat; test: Test B pre/postemergence wild oat; format: in vivo, Avena fatua; details: Preemergence
Outline: as §1

[5] = system: wheat; test: Test B pre/postemergence wheat; format: in vivo, Triticum aestivum; details: Preemergence
Outline: as §1

[6] = system: cocklebur; test: Test B pre/postemergence cocklebur; format: in vivo, Xanthium strumarium; details: Preemergence
Outline: as §1

[7] = system: purple nutsedge; test: Test B pre/postemergence purple nutsedge; format: in vivo, Cyperus rotundus; details: Preemergence, scale of 0 to 10 where 0 is no effect and 10 is complete control; for Nutsedge plant response rating: Rate 62 g/ha
Outline: as §1

[8] = system: pigweed; test: Test B pre/postemergence pigweed; format: in vivo, Amaranthus retroflexus; details: Preemergence
Outline: as §1

[9] = system: sugar beet; test: Test B pre/postemergence sugar beet; format: in vivo, Beta vulgaris; details: Preemergence
Outline: as §1

[10] = system: morningglory; test: Test B pre/postemergence morningglory; format: in vivo, Ipomoea hederacea; details: Preemergence
Outline: as §1

[11] = system: corn; test: Test B pre/postemergence corn; format: in vivo, Zea mays; details: Preemergence
Outline: as §1

[12] = system: velvetleaf; test: Test B pre/postemergence velvetleaf; format: in vivo, Abutilon theophrasti; details: Preemergence
Outline: as §1

[13] = system: giant foxtail; test: Test B pre/postemergence giant foxtail; format: in vivo, Setaria faberii; details: Preemergence
Outline: as §1

[14] = system: bedstraw; test: Test B pre/postemergence bedstraw; format: in vivo, Galium aparine; details: Preemergence
Outline: as §1

[15] = system: blackgrass; test: Test B pre/postemergence blackgrass; format: in vivo, Alopecurus myosuroides; details: Preemergence
Outline: as §1

[16] = system: rape; test: Test B pre/postemergence rape; format: in vivo, Brassica napus; details: Preemergence
Outline: as §1

[17] = Rate 62 g/ha, scale of 0 to 10 where 0 is no effect and 10 is complete control
[18] = Rate 125 g/ha, scale of 0 to 10 where 0 is no effect and 10 is complete control
[19] = Rate 250 g/ha, scale 0 to 10 (0 no effect, 10 complete control)
[20] = Rate 500 g/ha, scale of 0 to 10 where 0 is no effect and 10 is complete control

CC(C)N(C(=O)n1oc(=O)n(CCF)c1=O)c1ccccc1 [Compound 669]
0: Soybean plant response rating [2, 17] | Cocklebur plant response rating [6, 17] | Cocklebur plant response rating [6, 18] | Plant response rating, Cocklebur [6, 19] | Plant response rating, Cocklebur [6, 20] | Nutsedge plant response rating [7] | Morningglory plant response rating [10, 17] | Morningglory plant response rating [10, 18] | Plant response rating, Morningglory [10, 19] | Plant response rating, Morningglory [10, 20] | Velvetleaf plant response rating [12, 17] | Velvetleaf plant response rating [12, 18] | Plant response rating, Velvetleaf [12, 19] | Plant response rating, Velvetleaf [12, 20] | Bedstraw plant response rating [14, 17]
7: Bedstraw plant response rating [14, 18]
3: Plant response rating, Soybean [2, 19]
4: Rape plant response rating [16, 18]
2: Soybean plant response rating [2, 18] | Corn plant response rating [11, 17] | Rape plant response rating [16, 17]
6: Plant response rating, Soybean [2, 20] | Wheat plant response rating [5, 17] | Plant response rating, Nutsedge ([7]; Rate 500 g/ha) | Redroot pigweed plant response rating [8, 17] | Sugarbeets plant response rating [9, 17]
5: Wheat plant response rating [5, 18]
8: B. signalgrass plant response rating [1, 17] | B. signalgrass plant response rating [1, 18] | Plant response rating, Wheat [5, 19] | Plant response rating, Wheat [5, 20] | Sugarbeets plant response rating [9, 18] | Plant response rating, Sugarbeets [9, 19] | Plant response rating, Rape [16, 19]
10: Plant response rating, B. signalgrass [1, 19] | Plant response rating, B. signalgrass [1, 20] | Plant response rating, Crabgrass [3, 20] | Wild oats plant response rating [4, 17] | Wild oats plant response rating [4, 18] | Plant response rating, Wild oats [4, 19] | Plant response rating, Wild oats [4, 20] | Redroot pigweed plant response rating [8, 18] | Plant response rating, Redroot pigweed [8, 19] | Plant response rating, Redroot pigweed [8, 20] | Plant response rating, Giant foxtail [13, 19] | Plant response rating, Giant foxtail [13, 20] | Blackgrass plant response rating [15, 18] | Plant response rating, Blackgrass [15, 19] | Plant response rating, Blackgrass [15, 20]
9: Crabgrass plant response rating [3, 17] | Crabgrass plant response rating [3, 18] | Plant response rating, Crabgrass [3, 19] | Plant response rating, Sugarbeets [9, 20] | Corn plant response rating [11, 18] | Plant response rating, Corn [11, 19] | Plant response rating, Corn [11, 20] | Giant foxtail plant response rating [13, 17] | Giant foxtail plant response rating [13, 18] | Plant response rating, Bedstraw [14, 19] | Plant response rating, Bedstraw [14, 20] | Blackgrass plant response rating [15, 17] | Plant response rating, Rape [16, 20]

CCn1ncc(Cn2c(=O)on(C(=O)N(c3ccc(F)cc3F)C(C)C)c2=O)c1Cl [Compound 682]
8: Plant response rating, B. signalgrass [1, 20] | Plant response rating, Wild oats [4, 20] | Plant response rating, Blackgrass [15, 19]
9: Plant response rating, Crabgrass [3, 18] | Plant response rating, Crabgrass [3, 19] | Plant response rating, Crabgrass [3, 20] | Giant foxtail plant response rating [13, 17] | Plant response rating, Blackgrass [15, 20]
10: Plant response rating, Giant foxtail [13, 18] | Plant response rating, Giant foxtail [13, 20]
6: Plant response rating, B. signalgrass [1, 18]
3: Plant response rating, Morningglory [10, 20] | Blackgrass plant response rating [15, 17]
4: Redroot pigweed plant response rating [8, 17] | Plant response rating, Redroot pigweed [8, 18]
2: B. signalgrass plant response rating [1, 17]
0: Soybean plant response rating [2, 17] | Plant response rating, Soybean [2, 18] | Plant response rating, Soybean [2, 20] | Wild oats plant response rating [4, 17] | Plant response rating, Wild oats [4, 18] | Wheat plant response rating [5, 17] | Plant response rating, Wheat [5, 18] | Plant response rating, Wheat [5, 20] | Cocklebur plant response rating [6, 17] | Plant response rating, Cocklebur [6, 18] | Plant response rating, Cocklebur [6, 19] | Plant response rating, Cocklebur [6, 20] | Nutsedge plant response rating [7] | Plant response rating, Nutsedge ([7]; Rate 125 g/ha) | Plant response rating, Nutsedge ([7]; Rate 500 g/ha) | Sugarbeets plant response rating [9, 17] | Plant response rating, Sugarbeets [9, 18] | Morningglory plant response rating [10, 17] | Plant response rating, Morningglory [10, 18] | Corn plant response rating [11, 17] | Plant response rating, Corn [11, 18] | Plant response rating, Corn [11, 19] | Plant response rating, Corn [11, 20] | Velvetleaf plant response rating [12, 17] | Plant response rating, Velvetleaf [12, 18] | Plant response rating, Velvetleaf [12, 20] | Bedstraw plant response rating [14, 17] | Plant response rating, Bedstraw [14, 18] | Plant response rating, Bedstraw [14, 19] | Plant response rating, Bedstraw [14, 20] | Rape plant response rating [16, 17] | Plant response rating, Rape [16, 18]
5: Crabgrass plant response rating [3, 17] | Plant response rating, Blackgrass [15, 18]
7: Plant response rating, B. signalgrass [1, 19] | Plant response rating, Redroot pigweed [8, 20] | Plant response rating, Sugarbeets [9, 20] | Plant response rating, Rape [16, 20]
